This is an account of results in patent US20250163038A1, “CBL-B MODULATORS AND USES THEREOF” (Nimbus Clio, Inc., priority 2021, published 2025).

Like-named read-outs stand apart in the source and are kept apart here.

Assay [1] has as its target Recombinant human Cbl-b (aa 36-427) (Homo sapiens, UniProt Q13191). The assay can be described thus: Cbl-b Biochemical Assay (TR-FRET). To be noted: read-out: TR-FRET hCbl-b IC50.
In assay [2] the test system is Jurkat (clone E6-1) cells with NFAT luciferase reporter. The assay can be described thus: Jurkat reporter assay (NFAT Luciferase). Type of assay: cell-based. The note with it: Homo sapiens. In general terms: In a reporter assay the amount or activity of a reporter protein is the signal.
Assay [3] deals with T1, Recombinant human c-Cbl (aa 47-435) (Homo sapiens, UniProt P22681).
T1 sequence (P22681 47-435): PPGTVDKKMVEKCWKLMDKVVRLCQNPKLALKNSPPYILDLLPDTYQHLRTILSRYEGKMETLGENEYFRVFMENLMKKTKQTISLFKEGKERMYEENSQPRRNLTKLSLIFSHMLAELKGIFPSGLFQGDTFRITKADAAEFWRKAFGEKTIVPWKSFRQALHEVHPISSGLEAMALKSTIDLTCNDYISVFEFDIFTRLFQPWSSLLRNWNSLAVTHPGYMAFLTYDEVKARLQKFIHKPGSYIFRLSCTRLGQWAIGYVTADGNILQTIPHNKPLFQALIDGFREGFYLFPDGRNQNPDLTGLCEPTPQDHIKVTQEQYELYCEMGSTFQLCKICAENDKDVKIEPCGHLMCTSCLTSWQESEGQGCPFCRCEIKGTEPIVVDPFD
The assay can be described thus: c-Cbl Biochemical Assay (TR-FRET). To be noted: hc-Cbl Biochemical Assay (TR-FRET); read-out: TR-FRET hcCbl IC50. (TR-FRET usually uses a lanthanide donor and a delayed reading to cut background.)

[4] abbreviates: Jurkat NFAT luciferase reporter cells, anti-CD3 stimulation, 6 hr, read-out: Jurkat NFAT EC50.
[5] abbreviates: Jurkat, 6 h, read-out: Jurkat NFAT EC50 (μM).

Chain of Recombinant human Cbl-b (aa 36-427) (Q13191 36-427): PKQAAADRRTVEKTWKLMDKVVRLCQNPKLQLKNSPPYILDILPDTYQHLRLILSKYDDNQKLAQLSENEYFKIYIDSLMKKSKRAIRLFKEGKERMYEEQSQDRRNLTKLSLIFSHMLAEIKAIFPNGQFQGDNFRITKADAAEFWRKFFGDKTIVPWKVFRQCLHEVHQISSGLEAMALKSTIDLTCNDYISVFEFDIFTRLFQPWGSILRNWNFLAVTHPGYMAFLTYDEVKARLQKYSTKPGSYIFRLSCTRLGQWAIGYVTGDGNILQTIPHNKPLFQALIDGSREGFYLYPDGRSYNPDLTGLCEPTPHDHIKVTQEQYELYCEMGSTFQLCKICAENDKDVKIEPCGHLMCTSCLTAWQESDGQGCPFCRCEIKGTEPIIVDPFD

In general, IC50 refers to the midpoint of a concentration-inhibition curve. The term EC50 denotes the concentration giving half of the maximal effect. As to `CN(C)CC(=O)NCc1cc(C(F)(F)F)c2oc(-c3cccc(-c4ccc(F)cc4-c4nncn4C)c3)nc2c1` [HC-2, 2-(Dimethylamino)-N-((2-(4′-fluoro-2′-(4-methyl-4H-1,2,4-triazol-3-yl)-[1,1′-biphenyl]-3-yl)-7-(trifluoromethyl)benzo[d]oxazol-5-yl)methyl)acetamide], the IC50 is below 200 nM in assay [1] and 200 to 1000 nM in assay [3]. In addition, in assay [2] (setting [4]), the EC50 was in the range of 1 to 10 µM.

For `CC(=O)NCCNCc1cc(C(F)(F)F)c2oc(-c3cccc(-c4ccc(F)cc4-c4nncn4C)c3)nc2c1` [HD-2, N-(2-(((2-(4′-Fluoro-2′-(4-methyl-4H-1,2,4-triazol-3-yl)-[1,1′-biphenyl]-3-yl)-7-(trifluoromethyl)benzo[d]oxazol-5-yl)methyl)amino)ethyl)acetamide], the IC50 in assay [1] and in assay [3] was below 200 nM each time. For the same molecule, the EC50 in assay [2] (setting [4]) was in the range of 0.2 to 1 µM.

Regarding `Cn1cnnc1-c1cc(F)ccc1-c1cccc(-c2nc3cc(CNCC(=O)N4CCC4)cc(C(F)(F)F)c3o2)c1` [HE-4, 1-(Azetidin-1-yl)-2-(((2-(4′-fluoro-2′-(4-methyl-4H-1,2,4-triazol-3-yl)-[1,1′-biphenyl]-3-yl)-7-(trifluoromethyl)benzo[d]oxazol-5-yl)methyl)amino)ethan-1-one], the half-inhibitory concentration (IC50) in assay [1] and in assay [3] was below 200 nM in each case. In addition, in assay [2] (setting [4]), the EC50 is 1 to 10 µM.

As to `COc1cc(CN[C@@H]2C[C@H](O)C2(C)C)cc2nc(-c3cccc(-c4ccc(F)cc4-c4nncn4C)c3)oc12` [HF-1, (1S,3R)-3-(((2-(4′-Fluoro-2′-(4-methyl-4H-1,2,4-triazol-3-yl)-[1,1′-biphenyl]-3-yl)-7-methoxybenzo[d]oxazol-5-yl)methyl)amino)-2,2-dimethylcyclobutan-1-ol], the IC50 was below 200 nM in assay [1] and 200 to 1000 nM in assay [3]. In assay [2] (setting [4]), the EC50 was in the range of 1 to 10 µM.

`Cn1cnnc1-c1cc(F)ccc1-c1cccc(-c2nc3cc(CN[C@@H]4CCC[C@@H]4O)cc(Cl)c3o2)c1` [HG-7, (1S,2R)-2-(((7-Chloro-2-(4′-fluoro-2′-(4-methyl-4H-1,2,4-triazol-3-yl)-[1,1′-biphenyl]-3-yl)benzo[d]oxazol-5-yl)methyl)amino)cyclopentan-1-ol]: the IC50 in assay [1] and in assay [3] was below 200 nM throughout. The EC50 in assay [2] (setting [5]) was below 0.2 µM.

As for `Cn1cnnc1-c1cc(F)ccc1-c1cccc(-c2nc3cc(CN[C@@H]4CCC[C@@H]4O)cc(C#N)c3o2)c1` [HH-3, 2-(4′-Fluoro-2′-(4-methyl-4H-1,2,4-triazol-3-yl)-[1,1′-biphenyl]-3-yl)-5-((((1R,2S)-2-hydroxycyclopentyl)amino)methyl)benzo[d]oxazole-7-carbonitrile], the IC50 in assay [1] and in assay [3] was below 200 nM throughout. For the same molecule, the EC50 in assay [2] (setting [5]) is below 0.2 µM.

With `Cn1cnnc1-c1cc(F)ccc1-c1cccc(-c2nc3cc(CN[C@H]4CCC[C@H]4O)cc(C(F)(F)F)c3o2)c1` [HI-2, (1R,2S)-2-(((2-(4′-Fluoro-2′-(4-methyl-4H-1,2,4-triazol-3-yl)-[1,1′-biphenyl]-3-yl)-7-(trifluoromethyl)benzo[d]oxazol-5-yl)methyl)amino)cyclopentan-1-ol], the IC50 in assay [1] and in assay [3] was below 200 nM in each case. In addition, the EC50 in assay [2] (setting [4]) was below 0.2 µM.

With `Cn1cnnc1-c1cc(F)ccc1-c1cccc(-c2nc3cc(CN[C@H]4CCC[C@@H]4O)cc(C(F)(F)F)c3o2)c1` [HJ-1, (1S,2S)-2-(((2-(4′-Fluoro-2′-(4-methyl-4H-1,2,4-triazol-3-yl)-[1,1′-biphenyl]-3-yl)-7-(trifluoromethyl)benzo[d]oxazol-5-yl)methyl)amino)cyclopentan-1-ol], the IC50 in assay [1] and in assay [3] was below 200 nM each time. In addition, in assay [2] (setting [4]), the EC50 was below 0.2 µM.

In the case of `Cn1cnnc1-c1cc(F)ccc1-c1cccc(-c2nc3cc(CNCC4(C)CCC4)cc(C(F)(F)F)c3o2)c1` [HK-2, 1-(2-(4′-Fluoro-2′-(4-methyl-4H-1,2,4-triazol-3-yl)-[1,1′-biphenyl]-3-yl)-7-(trifluoromethyl)benzo[d]oxazol-5-yl)-N-((1-methylcyclobutyl)methyl)methanamine], the IC50 in assay [1] and in assay [3] was below 200 nM in each case. In assay [2] (setting [4]), the EC50 was below 0.2 µM.

With `Cn1cnnc1-c1cc(F)ccc1-c1cccc(-c2nc3cc(CNC[C@@]4(C)CCO4)cc(C(F)(F)F)c3o2)c1` [HL-2, (R)-1-(2-(4′-Fluoro-2′-(4-methyl-4H-1,2,4-triazol-3-yl)-[1,1′-biphenyl]-3-yl)-7-(trifluoromethyl)benzo[d]oxazol-5-yl)-N-((2-methyloxetan-2-yl)methyl)methanamine], the IC50 in assay [1] and in assay [3] was below 200 nM throughout. In addition, the concentration giving a half-maximal response (EC50) in assay [2] (setting [4]) is 0.2 to 1 µM.

For `Cn1cnnc1-c1cc(F)ccc1-c1cccc(-c2nc3cc(NCCC4CCCC4)cc(C(F)(F)F)c3o2)c1` [HM-3, N-(2-Cyclopentylethyl)-2-(4′-fluoro-2′-(4-methyl-4H-1,2,4-triazol-3-yl)-[1,1′-biphenyl]-3-yl)-7-(trifluoromethyl)benzo[d]oxazol-5-amine], the IC50 in assay [1] and in assay [3] was 1000 to 10000 nM throughout. In addition, the EC50 in assay [2] (setting [4]) lay within 1 to 10 µM.

As to `Cn1cnnc1-c1cc(F)ccc1-c1cccc(-c2nc3cc(CNCCC4CCCC4)cc(C(F)(F)F)c3o2)c1` [HN-1, 2-Cyclopentyl-N-((2-(4′-fluoro-2′-(4-methyl-4H-1,2,4-triazol-3-yl)-[1,1′-biphenyl]-3-yl)-7-(trifluoromethyl)benzo[d]oxazol-5-yl)methyl)ethan-1-amine], the IC50 in assay [1] and in assay [3] was below 200 nM in each case. For the same molecule, in assay [2] (setting [4]), the EC50 lay within 0.2 to 1 µM.

As to `Cn1cnnc1-c1cc(F)ccc1-c1cccc(-c2nc3cc(CNC4CC4)cc(C(F)(F)F)c3o2)c1` [HO-2, N-((2-(4′-Fluoro-2′-(4-methyl-4H-1,2,4-triazol-3-yl)-[1,1′-biphenyl]-3-yl)-7-(trifluoromethyl)benzo[d]oxazol-5-yl)methyl)cyclopropanamine], the IC50 in assay [1] and in assay [3] was below 200 nM each time. For the same molecule, the EC50 in assay [2] (setting [4]) is below 0.2 µM.

For `CCC1(CNCc2cc(C(F)(F)F)c3oc(-c4cccc(-c5ccc(F)cc5-c5nncn5C)c4)nc3c2)CCC1` [HP-2, 1-(1-Ethylcyclobutyl)-N-((2-(4′-fluoro-2′-(4-methyl-4H-1,2,4-triazol-3-yl)-[1,1′-biphenyl]-3-yl)-7-(trifluoromethyl)benzo[d]oxazol-5-yl)methyl)methanamine], the half-maximal inhibitory concentration (IC50) in assay [1] and in assay [3] was below 200 nM throughout. The EC50 in assay [2] (setting [4]) was below 0.2 µM.

With `CC(C)CC1(CNCc2cc(C(F)(F)F)c3oc(-c4cccc(-c5ccc(F)cc5-c5nncn5C)c4)nc3c2)CCC1` [HQ-2, 1-(2-(4′-Fluoro-2′-(4-methyl-4H-1,2,4-triazol-3-yl)-[1,1′-biphenyl]-3-yl)-7-(trifluoromethyl)benzo[d]oxazol-5-yl)-N-((1-isobutylcyclobutyl)methyl)methanamine], the IC50 in assay [1] and in assay [3] was below 200 nM throughout. Moreover, in assay [2] (setting [4]), the EC50 lay in the range of 0.2 to 1 µM.

On to `CN(Cc1cc(Cl)c2oc(-c3cccc(-c4ccc(F)cc4-c4nncn4C)c3)nc2c1)[C@@H]1CCC[C@@H]1O` [HS-3, (1S,2R)-2-(((7-Chloro-2-(4′-fluoro-2′-(4-methyl-4H-1,2,4-triazol-3-yl)-[1,1′-biphenyl]-3-yl)benzo[d]oxazol-5-yl)methyl)(methyl)amino)cyclopentan-1-ol], for which the IC50 in assay [1] and in assay [3] was below 200 nM in each case. Further, the EC50 in assay [2] (setting [4]) is below 0.2 µM.

With `COc1cc(CN(C)[C@@H]2CCC[C@@H]2O)cc2nc(-c3cccc(-c4ccc(F)cc4-c4nncn4C)c3)oc12` [HT-3, (1S,2R)-2-(((2-(4′-Fluoro-2′-(4-methyl-4H-1,2,4-triazol-3-yl)-[1,1′-biphenyl]-3-yl)-7-methoxybenzo[d]oxazol-5-yl)methyl)(methyl)amino)cyclopentan-1-ol], the IC50 in assay [1] and in assay [3] was below 200 nM throughout. In addition, in assay [2] (setting [4]), the EC50 is 0.2 to 1 µM.

With `Cn1cnnc1-c1cc(F)ccc1-c1cccc(-c2nc3cc(N[C@@H]4CCC[C@@H]4O)cc(C(F)(F)F)c3o2)c1` [HV-3, (1S,2R)-2-((2-(4′-Fluoro-2′-(4-methyl-4H-1,2,4-triazol-3-yl)-[1,1′-biphenyl]-3-yl)-7-(trifluoromethyl)benzo[d]oxazol-5-yl)amino)cyclopentan-1-ol], the IC50 lay within 200 to 1000 nM in assay [1] and 1000 to 10000 nM in assay [3]. Moreover, the EC50 in assay [2] (setting [4]) is 10 to 50 µM.

As for `Cn1cnnc1-c1cc(F)ccc1-c1cccc(-c2nc3cc(CNCC4(F)CCC4)cc(C(F)(F)F)c3o2)c1` [HW-2, 1-(2-(4′-Fluoro-2′-(4-methyl-4H-1,2,4-triazol-3-yl)-[1,1′-biphenyl]-3-yl)-7-(trifluoromethyl)benzo[d]oxazol-5-yl)-N-((1-fluorocyclobutyl)methyl)methanamine], the IC50 in assay [1] and in assay [3] was below 200 nM throughout. In addition, in assay [2] (setting [4]), the EC50 lay in the range of 0.2 to 1 µM.

Turning to `Cn1cnnc1-c1cc(F)ccc1-c1cccc(-c2nc3cc(CN[C@@H]4CCC[C@@H]4O)c(F)c(F)c3o2)c1` [HX-8, (1S,2R)-2-(((6,7-Difluoro-2-(4′-fluoro-2′-(4-methyl-4H-1,2,4-triazol-3-yl)-[1,1′-biphenyl]-3-yl)benzo[d]oxazol-5-yl)methyl)amino)cyclopentan-1-ol], the IC50 in assay [1] and in assay [3] was below 200 nM each time. The concentration giving a half-maximal response (EC50) in assay [2] (setting [4]) was below 0.2 µM.
